How the values were obtained:
Format in all cases: in vivo
[1] = test system: Amaranthus retoflexus (AMARE); test: B5 Pre-Emergence Efficacy—Test 2; conditions: 250 g/ha, evaluated after 13 days
Procedure, shortened: (§1)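 Scores are percentage plant damage on a five-point scale (5=80-100%; 4=60-79%; 3=40-59%; 2=20-39%; 1=0-19%), taken 13 days after a pre-emergence spray of 250 g/ha. Sowing preceded spraying by one day; glasshouse at 24/16 °C, 65% humidity.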

[2] = test system: Solanum nigrum (SOLNI); test: B5 Pre-Emergence Efficacy—Test 2; conditions: 250 g/ha, evaluated after 13 days
Procedure, shortened: as §1

[3] = test system: Echinochloa crus-galli (ECHCG); test: B5 Pre-Emergence Efficacy—Test 2; parameters: key: 5-point scale: 5=80-100%, 4=60-79%, 3=40-59%, 2=20-39%, 1=0-19% damage; conditions: 250 g/ha, evaluated after 13 days
Procedure, shortened: as §1

[4] = test system: Ipomoea hederacea (IPOHE); test: B5 Pre-Emergence Efficacy—Test 2; parameters: key: 5-point scale: 5=80-100%, 4=60-79%, 3=40-59%, 2=20-39%, 1=0-19% damage; conditions: 250 g/ha, evaluated after 13 days
Procedure, shortened: as §1

[5] = test system: Setaria faberi (SETFA); test: B5 Pre-Emergence Efficacy—Test 2; parameters: key: 5-point scale: 5=80-100%, 4=60-79%, 3=40-59%, 2=20-39%, 1=0-19% damage; conditions: 250 g/ha, evaluated after 13 days
Procedure, shortened: as §1

[6] = test system: Lolium perenne (LOLPE); test: B5 Pre-Emergence Efficacy—Test 2; parameters: key: 5-point scale: 5=80-100%, 4=60-79%, 3=40-59%, 2=20-39%, 1=0-19% damage; conditions: 250 g/ha, evaluated after 13 days
Procedure, shortened: as §1

[7] = test system: Echinochloa crus-galli (ECHCG); test: B2 Post-Emergence Efficacy—Test 2; conditions: post-emergence application, 250 g/ha, evaluated after 13 days (Test 2)
Procedure, shortened: (§2)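 Damage scores (five-point scale, 5=80-100%, 4=60-79%, 3=40-59%, 2=20-39%, 1=0-19%) reflect percentage injury 13 days after treatment. Plants received 250 g/ha as a post-emergence spray at 8 days after sowing.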

[8] = test system: Ipomoea hederacea (IPOHE); test: B2 Post-Emergence Efficacy—Test 2; conditions: post-emergence application, 250 g/ha, evaluated after 13 days (Test 2)
Procedure, shortened: as §2

[9] = test system: Setaria faberi (SETFA); test: B2 Post-Emergence Efficacy—Test 2; conditions: post-emergence application, 250 g/ha, evaluated after 13 days (Test 2)
Procedure, shortened: as §2

[10] = test system: Amaranthus retoflexus (AMARE); test: B2 Post-Emergence Efficacy—Test 2; conditions: post-emergence application, 250 g/ha, evaluated after 13 days (Test 2)
Procedure, shortened: as §2

[11] = test system: Lolium perenne (LOLPE); test: B2 Post-Emergence Efficacy—Test 2; conditions: post-emergence application, 250 g/ha, evaluated after 13 days (Test 2)
Procedure, shortened: as §2

[12] = test system: Solanum nigrum (SOLNI); test: B2 Post-Emergence Efficacy—Test 2; conditions: post-emergence application, 250 g/ha, evaluated after 13 days (Test 2)
Procedure, shortened: as §2

Row | Structure (SMILES) | Control of weed species after pre-emergence application, AMARE (percentage damage, five point scale) [1] | Control of weed species after pre-emergence application, SOLNI (percentage damage, five point scale) [2] | Control of weed species after pre-emergence application, ECHCG (percentage damage, five point scale) [3] | Control of weed species after pre-emergence application, IPOHE (percentage damage, five point scale) [4] | Control of weed species after pre-emergence application, SETFA (percentage damage, five point scale) [5] | Control of weed species after pre-emergence application, LOLPE (percentage damage, five point scale) [6] | percentage damage caused to the plant, five point scale, ECHCG [7] | percentage damage caused to the plant, five point scale, IPOHE [8] | percentage damage caused to the plant, five point scale, SETFA [9] | percentage damage caused to the plant, five point scale, AMARE [10] | percentage damage caused to the plant, five point scale, LOLPE [11] | percentage damage caused to the plant, five point scale, SOLNI [12]
1 | Cc1nn(C)c(=O)c(-c2c(F)ccc(Cl)c2/C=C/c2ccc(OC(C)(C)C)cc2)c1OC(=O)C(C)C [Compound A-4.035] | 0 | 0 | 1 (1=0-19%) | 1 (1=0-19%) | 0 | 1 (1=0-19%) | 0 | 3 (3=40-59%) | 0 | 1 (1=0-19%) | 0 | 3 (3=40-59%)
2 | Cc1nn(C)c(=O)c(-c2c(F)ccc(Cl)c2CCc2ccc(O)cc2)c1O [Compound A-1.037] | 1 (1=0-19%) | 2 (2=20-39%) | 2 (2=20-39%) | 0 | 0 | 0 | 3 (3=40-59%) | 5 (5=80-100%) | 5 (5=80-100%) | 1 (1=0-19%) | 1 (1=0-19%) | 5 (5=80-100%)
3 | Cc1nn(C)c(=O)c(-c2c(F)ccc(Cl)c2CCc2cccc(C#N)c2)c1OC(=O)C(C)C [Compound A-3.030] | 5 (5=80-100%) | 5 (5=80-100%) | 4 (4=60-79%) | 3 (3=40-59%) | 5 (5=80-100%) | 4 (4=60-79%) | 2 (2=20-39%) | 5 (5=80-100%) | 5 (5=80-100%) | 5 (5=80-100%) | 4 (4=60-79%) | 5 (5=80-100%)
4 | Cc1nn(C)c(=O)c(-c2c(F)ccc(Cl)c2/C=C/c2ccc(O)cc2)c1O [Compound A-2.037] | 0 | 0 | 0 | 1 (1=0-19%) | 1 (1=0-19%) | 1 (1=0-19%) | 2 (2=20-39%) | 2 (2=20-39%) | 1 (1=0-19%) | 1 (1=0-19%) | 1 (1=0-19%) | 2 (2=20-39%)
5 | Cc1nn(C)c(=O)c(-c2c(F)ccc(Cl)c2/C=C/c2cccc(C#N)c2)c1O [Compound A-2.030] | 0 | 0 | 0 | 0 | 0 | 0 | 0 | 4 (4=60-79%) | 0 | 3 (3=40-59%) | 1 (1=0-19%) | 4 (4=60-79%)
6 | Cc1nn(C)c(=O)c(-c2c(F)ccc(Cl)c2CCc2ccc(S(=O)(=O)N(C)C)cc2)c1O [Compound A-1.025] | 5 (5=80-100%) | 5 (5=80-100%) | 5 (5=80-100%) | 1 (1=0-19%) | 5 (5=80-100%) | 4 (4=60-79%) | 5 (5=80-100%) | 5 (5=80-100%) | 5 (5=80-100%) | 5 (5=80-100%) | 5 (5=80-100%) | 5 (5=80-100%)
7 | Cc1nn(C)c(=O)c(-c2c(F)ccc(Cl)c2CCc2ccc(C(C)(C)C)cc2)c1O [Compound A-1.026] | 0 | 0 | 0 | 0 | 0 | 0 | 0 | 0 | 2 (2=20-39%) | 4 (4=60-79%) | 1 (1=0-19%) | 4 (4=60-79%)
8 | Cc1nn(C)c(=O)c(-c2c(F)ccc(Cl)c2CCc2ccc(-c3cccs3)cc2)c1O [Compound A-1.384] | 2 (2=20-39%) | 1 (1=0-19%) | 0 | 2 (2=20-39%) | 0 | 0 | 3 (3=40-59%) | 5 (5=80-100%) | 5 (5=80-100%) | 5 (5=80-100%) | 4 (4=60-79%) | 5 (5=80-100%)
